Results published in ChEMBL document CHEMBL5518199, “Discovery of Effective Dual PROTAC Degraders for Neurodegenerative Disease-Associated Aggregates” (J Med Chem, 2024).

Legend:
in vitro [1] = conditions: C57BL/6, mouse, plasma
in vivo [2] = conditions: rat, iv, 8 mg/kg
in vivo [3] = conditions: C57BL/6, mouse, iv, 8 mg/kg
in vivo [4] = conditions: rat, iv, 8 mg/kg; remark: listed apart in the source
in vivo [5] = conditions: C57BL/6, mouse, iv, 8 mg/kg; remark: listed apart in the source
in vivo [6] = conditions: C57BL/6, mouse, plasma, iv, 8 mg/kg
in vivo [7] = conditions: C57BL/6, mouse, brain, iv, 8 mg/kg
in vivo [8] = conditions: rat, iv, 8 mg/kg; remark: listed apart in the source
in vivo [9] = conditions: C57BL/6, mouse, brain, iv, 8 mg/kg; remark: listed apart in the source
in vivo [10] = conditions: C57BL/6, mouse, iv, 8 mg/kg; remark: listed apart in the source
in vivo [11] = conditions: C57BL/6, mouse, brain, iv, 8 mg/kg; remark: listed apart in the source
in vitro [12] = conditions: C57BL/6, mouse, brain
in vivo [13] = conditions: C57BL/6, mouse, brain, iv, 8 mg/kg; remark: listed apart in the source
in vivo [14] = conditions: C57BL/6, mouse, plasma, iv, 8 mg/kg; remark: listed apart in the source
in vivo [15] = conditions: rat, iv, 8 mg/kg; remark: listed apart in the source
in vivo [16] = conditions: C57BL/6, mouse, iv, 8 mg/kg; remark: listed apart in the source
in vivo [17] = conditions: rat, iv, 8 mg/kg; remark: listed apart in the source
in vivo [18] = conditions: C57BL/6, mouse, plasma, iv, 8 mg/kg; remark: listed apart in the source

Compound: Cc1ccc2nc(-c3ccc(NCCOCCOCCOCCNC(=O)COc4cccc5c4C(=O)N(C4CCC(=O)NC4=O)C5=O)cc3)sc2c1 (stereo not drawn)
- fraction unbound at 24 h (in vitro [1]): 0.442
- AUC(0-inf) at 24 h (in vivo [2]): 65.5 µM·h
- Vd at 24 h (in vivo [3]): 0.48 L/kg
- Vd at 24 h (in vivo [4]): 0.92 L/kg
- AUC(0-t) at 24 h (in vivo [5]): 109 µM·h
- half-life at 24 h (in vivo [6]): 3.24 h
- concentration at 168.25 h (in vivo [7]): 2700 nM
- AUC(0-t) at 24 h (in vivo [8]): 65.4 µM·h
- half-life at 24 h (in vivo [9]): 4.21 h
- clearance at 24 h (in vivo [10]): 1.68 mL/min/kg
- AUC at 24 h (in vivo [11]): 6.02 µM·h
- fraction unbound at 24 h (in vitro [12]): 0.397
- concentration at 0.25 h (in vivo [13]): 1730 nM
- AUC at 24 h (in vivo [14]): 109 µM·h
- half-life at 24 h (in vivo [15]): 3.78 h
- AUC(0-inf) at 24 h (in vivo [16]): 109 µM·h
- clearance at 24 h (in vivo [17]): 2 mL/min/kg
- concentration at 0.25 h (in vivo [18]): 67200 nM
